From the supplement of paper PMC10307832

Legend:
Experiment in all cases: relative viability (nuclei count vs DMSO), 5 days (fraction); higher = more cells survive
A-427 = tested on: A-427
In short: (§1)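 Five library-drug doses in √10 steps were combined with a fixed anchor-drug dose, or a single drug was given alone, by pin tool to lung cancer cell lines in 1536-well plates the day after seeding. Nuclei were stained and counted after 5 days. Relative viability is the nuclei count in treated wells over that in vehicle wells, taken as the median of duplicate plates.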

COR-L 105 = tested on: COR-L 105
In short: as §1

ChaGo-K-1 = tested on: ChaGo-K-1
In short: as §1

EKVX = tested on: EKVX
In short: as §1

EMC-BAC-2 = tested on: EMC-BAC-2
In short: as §1

H3255 = tested on: H3255
In short: as §1

HCC-366 = tested on: HCC-366
In short: as §1

LK-2 = tested on: LK-2
In short: as §1

LOU-NH91 = tested on: LOU-NH91
In short: as §1

NCI-H1563 = tested on: NCI-H1563
In short: as §1

NCI-H1666 = tested on: NCI-H1666
In short: as §1

NCI-H1734 = tested on: NCI-H1734
In short: as §1

NCI-H1755 = tested on: NCI-H1755
In short: as §1

NCI-H1975 = tested on: NCI-H1975
In short: as §1

NCI-H2170 = tested on: NCI-H2170
In short: as §1

NCI-H23 = tested on: NCI-H23
In short: as §1

NCI-H441 = tested on: NCI-H441
In short: as §1

NCI-H520 = tested on: NCI-H520
In short: as §1

NCI-H596 = tested on: NCI-H596
In short: as §1

PC-3 [JPC-3] = tested on: PC-3 [JPC-3]
In short: as §1

SK-MES-1 = tested on: SK-MES-1
In short: as §1

SW 900 = tested on: SW 900
In short: as §1

With `CCN(CC)CCCCNc1ncc2cc(-c3cc(OC)cc(OC)c3)c(NC(=O)NC(C)(C)C)nc2n1` + Nc1nc2[nH]cc(CCc3ccc(C(=O)N[C@@H](CCC(=O)O)C(=O)O)cc3)c2c(=O)[nH]1 [Pemetrexed] (partner 0.2 µM) the relative viability (A-427; first compound 0.01 µM) was 1.01, the relative viability (A-427; first compound 0.03162 µM) was 1 and the relative viability (A-427; first compound 0.1 µM) was 1.06. For the same compound, the relative viability (A-427; first compound 0.3162 µM) was 1.23, the relative viability (A-427; first compound 1 µM) was 0.965 and the relative viability (COR-L 105; first compound 0.01 µM) was 1.23. The relative viability (COR-L 105; first compound 0.03162 µM) was 1.12, the relative viability (COR-L 105; first compound 0.1 µM) was 1.18 and the relative viability (COR-L 105; first compound 0.3162 µM) was 1.47. It also gave a relative viability (COR-L 105; first compound 1 µM) of 1.05, a relative viability (ChaGo-K-1; first compound 0.01 µM) of 0.269 and a relative viability (ChaGo-K-1; first compound 0.03162 µM) of 0.407. It also gave a relative viability (ChaGo-K-1; first compound 0.1 µM) of 0.267, a relative viability (ChaGo-K-1; first compound 0.3162 µM) of 0.272 and a relative viability (ChaGo-K-1; first compound 1 µM) of 0.265. The relative viability (EKVX; first compound 0.03162 µM) was 0.354, the relative viability (EKVX; first compound 0.1 µM) was 0.362 and the relative viability (EKVX; first compound 0.3162 µM) was 0.475. It also gave a relative viability (EKVX; first compound 1 µM) of 0.379, a relative viability (EMC-BAC-2; first compound 0.03162 µM) of 0.46 and a relative viability (EMC-BAC-2; first compound 0.1 µM) of 0.491. For the same compound, the relative viability (EMC-BAC-2; first compound 0.3162 µM) was 0.479, the relative viability (EMC-BAC-2; first compound 1 µM) was 0.489 and the relative viability (H3255; first compound 0.01 µM) was 0.626. It also gave a relative viability (H3255; first compound 0.03162 µM) of 0.568, a relative viability (H3255; first compound 0.1 µM) of 0.615 and a relative viability (H3255; first compound 0.3162 µM) of 0.632. For the same compound, the relative viability (H3255; first compound 1 µM) was 0.513, the relative viability (HCC-366; first compound 0.01 µM) was 0.164 and the relative viability (HCC-366; first compound 0.03162 µM) was 0.172. For the same compound, the relative viability (HCC-366; first compound 0.1 µM) was 0.19, the relative viability (HCC-366; first compound 0.3162 µM) was 0.172 and the relative viability (HCC-366; first compound 1 µM) was 0.191. It also gave a relative viability (LK-2; first compound 0.01 µM) of 0.267, a relative viability (LK-2; first compound 0.03162 µM) of 0.272 and a relative viability (LK-2; first compound 0.1 µM) of 0.273. The relative viability (LK-2; first compound 0.3162 µM) was 0.149, the relative viability (LK-2; first compound 1 µM) was 0.145 and the relative viability (LOU-NH91; first compound 0.01 µM) was 0.406. It also gave a relative viability (LOU-NH91; first compound 0.03162 µM) of 0.376, a relative viability (LOU-NH91; first compound 0.1 µM) of 0.641 and a relative viability (LOU-NH91; first compound 0.3162 µM) of 0.388. For the same compound, the relative viability (LOU-NH91; first compound 1 µM) was 0.433, the relative viability (NCI-H1563; first compound 0.01 µM) was 0.72 and the relative viability (NCI-H1563; first compound 0.03162 µM) was 0.601. For the same compound, the relative viability (NCI-H1563; first compound 0.1 µM) was 1.02, the relative viability (NCI-H1563; first compound 0.3162 µM) was 0.737 and the relative viability (NCI-H1563; first compound 1 µM) was 0.633. For the same compound, the relative viability (NCI-H1666; first compound 0.01 µM) was 0.814, the relative viability (NCI-H1666; first compound 0.03162 µM) was 0.796 and the relative viability (NCI-H1666; first compound 0.1 µM) was 0.783. It also gave a relative viability (NCI-H1666; first compound 0.3162 µM) of 0.942, a relative viability (NCI-H1666; first compound 1 µM) of 0.808 and a relative viability (NCI-H1734; first compound 0.01 µM) of 0.405. It also gave a relative viability (NCI-H1734; first compound 0.03162 µM) of 0.387, a relative viability (NCI-H1734; first compound 0.1 µM) of 0.418 and a relative viability (NCI-H1734; first compound 0.3162 µM) of 0.409. The relative viability (NCI-H1734; first compound 1 µM) was 0.384, the relative viability (NCI-H1755; first compound 0.01 µM) was 0.413 and the relative viability (NCI-H1755; first compound 0.03162 µM) was 0.572. For the same compound, the relative viability (NCI-H1755; first compound 0.1 µM) was 0.356, the relative viability (NCI-H1755; first compound 0.3162 µM) was 0.448 and the relative viability (NCI-H1755; first compound 1 µM) was 0.435. For the same compound, the relative viability (NCI-H1975; first compound 0.01 µM) was 0.286, the relative viability (NCI-H1975; first compound 0.03162 µM) was 0.306 and the relative viability (NCI-H1975; first compound 0.1 µM) was 0.318. For the same compound, the relative viability (NCI-H1975; first compound 0.3162 µM) was 0.331, the relative viability (NCI-H1975; first compound 1 µM) was 0.283 and the relative viability (NCI-H2170; first compound 0.01 µM) was 0.251. It also gave a relative viability (NCI-H2170; first compound 0.03162 µM) of 0.293, a relative viability (NCI-H2170; first compound 0.1 µM) of 0.262 and a relative viability (NCI-H2170; first compound 0.3162 µM) of 0.238. It also gave a relative viability (NCI-H2170; first compound 1 µM) of 0.275, a relative viability (NCI-H23; first compound 0.01 µM) of 0.666 and a relative viability (NCI-H23; first compound 0.03162 µM) of 0.566. For the same compound, the relative viability (NCI-H23; first compound 0.1 µM) was 0.854, the relative viability (NCI-H23; first compound 0.3162 µM) was 0.778 and the relative viability (NCI-H23; first compound 1 µM) was 0.646. It also gave a relative viability (NCI-H441; first compound 0.01 µM) of 0.257, a relative viability (NCI-H441; first compound 0.03162 µM) of 0.232 and a relative viability (NCI-H441; first compound 0.1 µM) of 0.26. It also gave a relative viability (NCI-H441; first compound 0.3162 µM) of 0.249, a relative viability (NCI-H441; first compound 1 µM) of 0.25 and a relative viability (NCI-H520; first compound 0.01 µM) of 0.8. For the same compound, the relative viability (NCI-H520; first compound 0.03162 µM) was 0.694, the relative viability (NCI-H520; first compound 0.1 µM) was 0.555 and the relative viability (NCI-H520; first compound 0.3162 µM) was 0.511. For the same compound, the relative viability (NCI-H520; first compound 1 µM) was 0.314, the relative viability (NCI-H596; first compound 0.01 µM) was 0.453 and the relative viability (NCI-H596; first compound 0.03162 µM) was 0.496. For the same compound, the relative viability (NCI-H596; first compound 0.1 µM) was 0.488, the relative viability (NCI-H596; first compound 0.3162 µM) was 0.584 and the relative viability (NCI-H596; first compound 1 µM) was 0.443. The relative viability (PC-3 [JPC-3]; first compound 0.03162 µM) was 1, the relative viability (PC-3 [JPC-3]; first compound 0.1 µM) was 1.15 and the relative viability (PC-3 [JPC-3]; first compound 0.3162 µM) was 1.7. For the same compound, the relative viability (PC-3 [JPC-3]; first compound 1 µM) was 0.883, the relative viability (SK-MES-1; first compound 0.01 µM) was 1.11 and the relative viability (SK-MES-1; first compound 0.03162 µM) was 0.94. It also gave a relative viability (SK-MES-1; first compound 0.1 µM) of 1.05, a relative viability (SK-MES-1; first compound 0.3162 µM) of 1.07 and a relative viability (SK-MES-1; first compound 1 µM) of 0.98. It also gave a relative viability (SW 900; first compound 0.01 µM) of 0.529, a relative viability (SW 900; first compound 0.03162 µM) of 0.461 and a relative viability (SW 900; first compound 0.1 µM) of 0.517. The relative viability (SW 900; first compound 0.3162 µM) was 0.509 and the relative viability (SW 900; first compound 1 µM) was 0.309.
